Assays:
Type in all cases: in vivo
[1] = test system: Beet Armyworm (Spodoptera exigua); assay: Bioassay on Beet Armyworm (BAW), 128-well diet tray assay; conditions: Beet Armyworm, Table ABC, read-out: BAW rating
Outline: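 Second-instar larvae (one to five per well) placed on artificial diet surface-treated with 50 μg/cm^2 test molecule in 90:10 acetone-water, dried, eight wells per molecule. Held at 25° C, 14:10 light-dark, five to seven days; percent mortality recorded per well and averaged across the eight wells.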

[2] = test system: Cabbage Looper (Trichoplusia ni); assay: Bioassay on Cabbage Looper (CL), 128-well diet tray assay; conditions: Cabbage Looper, Table ABC, read-out: CL rating
Outline: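 Second-instar larvae, one to five per well, placed on artificial diet surface-treated with 50 μg/cm^2 compound in acetone-water, eight wells per compound. Held 5-7 days at 25° C, 14:10 light-dark; percent mortality per well averaged across wells.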

[3] = test system: Yellow Fever Mosquito (Aedes aegypti); assay: Bioassay on Yellow Fever Mosquito (YFM) larvae, 96-well plate; conditions: Table ABC
Protocol: Example C: Bioassays on Yellow Fever Mosquito (Aedes Aegypti, AEDSAE) (“YFM”)
Certain molecules disclosed in this document were tested against YFM using procedures described in the following paragraph. In the reporting of the results, the “GPA & YFM Rating Table” was used (See Table Section).
Master plates containing 400 μg of a molecule dissolved in 100 μL of dimethyl sulfoxide (DMSO) (equivalent to a 4000 ppm solution) are used. A master plate of assembled molecules contains 15 μL per well. To this plate, 135 μL of a 90:10 water:acetone mixture is added to each well. A robot (Biomek® NXP Laboratory Automation Workstation) is programmed to dispense 15 μL aspirations from the master plate into an empty 96-well shallow plate (“daughter” plate). There are 6 reps (“daughter” plates) created per master. The created daughter plates are then immediately infested with YFM larvae.
The day before plates are to be treated, mosquito eggs are placed in Millipore water containing liver powder to begin hatching (4 g. into 400 mL). After the daughter plates are created using the robot, they are infested with 220 μL of the liver powder/larval mosquito mixture (about 1 day-old larvae). After plates are infested with mosquito larvae, a non-evaporative lid is used to cover the plate to reduce drying. Plates are held at room temperature for 3 days prior to grading. After 3 days, each well is observed and scored based on mortality. The results are indicated in the table entitled “Table ABC: Biological Results” (See Table Section).

Compound | pest or weed control at 50 µg/cm2 [1] | pest or weed control at 50 µg/cm2 [2] | YFM rating [3]
CN(CC(F)(F)F)C(=O)CNC(=O)c1ccc(/C(F)=C/C(c2cc(Cl)c(Br)c(Cl)c2)C(F)(F)F)cc1C(F)(F)F (stereo not drawn) [F75, (Z)-4-(3-(4-Bromo-3,5-dichlorophenyl)-1,4,4,4-tetrafluorobut-1-en-1-yl)-N-(2-(methyl(2,2,2-trifluoroethyl)amino)-2-oxoethyl)-2-(trifluoromethyl)benzamide] | 50 to 100% | 50 to 100% | A (80-100)
C[C@@H](NC(=O)c1ccc(/C(F)=C/C(c2cc(Cl)c(Br)c(Cl)c2)C(F)(F)F)cc1C(F)(F)F)C(=O)N(C)CC(F)(F)F (stereo partly drawn) [F76, 4-((Z)-3-(4-Bromo-3,5-dichlorophenyl)-1,4,4,4-tetrafluorobut-1-en-1-yl)-N—((R)-1-(methyl(2,2,2-trifluoroethyl)amino)-1-oxopropan-2-yl)-2-(trifluoromethyl)benzamide] | 50 to 100% | 50 to 100% | A (80-100)
CN(CC(F)(F)F)C(=O)CNC(=O)c1ccc(/C(F)=C/C(c2cc(Br)c(Cl)c(Br)c2)C(F)(F)F)cc1C(F)(F)F (stereo not drawn) [F77, (Z)-4-(3-(3,5-Dibromo-4-chlorophenyl)-1,4,4,4-tetrafluorobut-1-en-1-yl)-N-(2-(methyl(2,2,2-trifluoroethyl)amino)-2-oxoethyl)-2-(trifluoromethyl)benzamide] | 50 to 100% | 50 to 100% | A (80-100)
C[C@@H](NC(=O)c1ccc(/C(F)=C/C(c2cc(Br)c(Cl)c(Br)c2)C(F)(F)F)cc1C(F)(F)F)C(=O)N(C)CC(F)(F)F (stereo partly drawn) [F78, 4-((Z)-3-(3,5-Dibromo-4-chlorophenyl)-1,4,4,4-tetrafluorobut-1-en-1-yl)-N—((R)-1-(methyl(2,2,2-trifluoroethyl)amino)-1-oxopropan-2-yl)-2-(trifluoromethyl)benzamide] | 50 to 100% | 50 to 100% | A (80-100)
C[C@@H](NC(=O)c1ccc(/C(F)=C/C(c2ccc(Br)c(Br)c2)C(F)(F)F)cc1C(F)(F)F)C(=O)NCC(F)(F)F (stereo partly drawn) [F79, 4-((Z)-3-(3,4-Dibromophenyl)-1,4,4,4-tetrafluorobut-1-en-1-yl)-N—((R)-1-oxo-1-((2,2,2-trifluoroethyl)amino)propan-2-yl)-2-(trifluoromethyl)benzamide] | 50 to 100% | 50 to 100% | A (80-100)
O=C(NC1(C(=O)NCC(F)(F)F)CC1)c1ccc(/C(F)=C/C(c2ccc(Br)c(Br)c2)C(F)(F)F)cc1C(F)(F)F (stereo not drawn) [F80, (Z)-4-(3-(3,4-Dibromophenyl)-1,4,4,4-tetrafluorobut-1-en-1-yl)-N-(1-((2,2,2-trifluoroethyl)carbamoyl)cyclopropyl)-2-(trifluoromethyl)benzamide] | 50 to 100% | 50 to 100% | A (80-100)
C[C@@H](NC(=O)c1ccc(/C(F)=C/C(c2cc(Cl)c(F)c(Cl)c2)C(F)(F)F)cc1C(F)(F)F)C(=O)N(C)CC(F)(F)F (stereo partly drawn) [F81, 4-((Z)-3-(3,5-Dichloro-4-fluorophenyl)-1,4,4,4-tetrafluorobut-1-en-1-yl)-N—((R)-1-(methyl(2,2,2-trifluoroethyl)amino)-1-oxopropan-2-yl)-2-(trifluoromethyl)benzamide] | 50 to 100% | 50 to 100% | A (80-100)
CN(CC(F)(F)F)C(=O)CNC(=O)c1ccc(/C(F)=C/C(c2cc(Cl)c(F)c(Cl)c2)C(F)(F)F)cc1C(F)(F)F (stereo not drawn) [F82, (Z)-4-(3-(3,5-Dichloro-4-fluorophenyl)-1,4,4,4-tetrafluorobut-1-en-1-yl)-N-(2-(methyl(2,2,2-trifluoroethyl)amino)-2-oxoethyl)-2-(trifluoromethyl)benzamide] | 50 to 100% | 50 to 100% | A (80-100)
C[C@@H](NC(=O)c1ccc(/C(F)=C/C(c2cc(Br)cc(Br)c2)C(F)(F)F)cc1C(F)(F)F)C(=O)N(C)CC(F)(F)F (stereo partly drawn) [F83, 4-((Z)-3-(3,5-Dibromophenyl)-1,4,4,4-tetrafluorobut-1-en-1-yl)-N—((R)-1-(methyl(2,2,2-trifluoroethyl)amino)-1-oxopropan-2-yl)-2-(trifluoromethyl)benzamide] | 50 to 100% | 50 to 100% | A (80-100)
CN(CC(F)(F)F)C(=O)CNC(=O)c1ccc(/C(F)=C/C(c2cc(Br)cc(Br)c2)C(F)(F)F)cc1C(F)(F)F (stereo not drawn) [F84, (Z)-4-(3-(3,5-Dibromophenyl)-1,4,4,4-tetrafluorobut-1-en-1-yl)-N-(2-(methyl(2,2,2-trifluoroethyl)amino)-2-oxoethyl)-2-(trifluoromethyl)benzamide] | 50 to 100% | 50 to 100% | A (80-100)
C=Cc1c(Cl)cc(C(/C=C(\F)c2ccc(C(=O)NCC(=O)N(C)CC(F)(F)F)c(C(F)(F)F)c2)C(F)(F)F)cc1Cl (stereo not drawn) [F85, (Z)-4-(3-(3,5-Dichloro-4-vinylphenyl)-1,4,4,4-tetrafluorobut-1-en-1-yl)-N-(2-(methyl(2,2,2-trifluoroethyl)amino)-2-oxoethyl)-2-(trifluoromethyl)benzamide] | 50 to 100% | 50 to 100% | A (80-100)
C=Cc1c(Cl)cc(C(/C=C(\F)c2ccc(C(=O)N[C@H](C)C(=O)N(C)CC(F)(F)F)c(C(F)(F)F)c2)C(F)(F)F)cc1Cl (stereo partly drawn) [F86, 4-((Z)-3-(3,5-Dichloro-4-vinylphenyl)-1,4,4,4-tetrafluorobut-1-en-1-yl)-N—((R)-1-(methyl(2,2,2-trifluoroethyl)amino)-1-oxopropan-2-yl)-2-(trifluoromethyl)benzamide] | 50 to 100% | 50 to 100% | A (80-100)
CN(CC(F)(F)F)C(=O)CN(C)C(=O)c1ccc(/C(F)=C/C(c2cc(Cl)c(Cl)c(Cl)c2)C(F)(F)F)cc1C(F)(F)F (stereo not drawn) [F99, (Z)—N-Methyl-N-(2-(methyl(2,2,2-trifluoroethyl)amino)-2-oxoethyl)-4-(1,4,4,4-tetrafluoro-3-(3,4,5-trichlorophenyl)but-1-en-1-yl)-2-(trifluoromethyl)benzamide] | 50 to 100% | 50 to 100% | A (80-100)
Cc1cc(C(/C=C(\F)c2ccc(C(=O)N[C@H](C)C(=O)N(C)CC(F)(F)F)c(C(F)(F)F)c2)C(F)(F)F)cc(C)c1Cl (stereo partly drawn) [F102, 4-((Z)-3-(4-Chloro-3,5-dimethylphenyl)-1,4,4,4-tetrafluorobut-1-en-1-yl)-N—((R)-1-(methyl(2,2,2-trifluoroethyl)amino)-1-oxopropan-2-yl)-2-(trifluoromethyl)benzamide] | 50 to 100% | 50 to 100% | A (80-100)
Cc1cc(C(/C=C(\F)c2ccc(C(=O)NCC(=O)N(C)CC(F)(F)F)c(C(F)(F)F)c2)C(F)(F)F)cc(C)c1Cl (stereo not drawn) [F103, (Z)-4-(3-(4-Chloro-3,5-dimethylphenyl)-1,4,4,4-tetrafluorobut-1-en-1-yl)-N-(2-(methyl(2,2,2-trifluoroethyl)amino)-2-oxoethyl)-2-(trifluoromethyl)benzamide] | 50 to 100% | 50 to 100% | B (More than 0-Less than 80)
C=Cc1c(Cl)cc(C(/C=C(\F)c2ccc(C(=O)NC3(C(=O)NCC(F)(F)F)CC3)c(C(F)(F)F)c2)C(F)(F)F)cc1Cl (stereo not drawn) [F113, (Z)-4-(3-(3,5-Dichloro-4-vinylphenyl)-1,4,4,4-tetrafluorobut-1-en-1-yl)-N-(1-((2,2,2-trifluoroethyl)carbamoyl)cyclopropyl)-2-(trifluoromethyl)benzamide] | 50 to 100% | 50 to 100% | A (80-100)
CN(CC(F)(F)F)C(=O)C1(NC(=O)c2ccc(/C(F)=C/C(c3cc(Cl)c(F)c(Cl)c3)C(F)(F)F)cc2C(F)(F)F)CC1 (stereo not drawn) [F114, (Z)-4-(3-(3,5-Dichloro-4-fluorophenyl)-1,4,4,4-tetrafluorobut-1-en-1-yl)-N-(1-(methyl(2,2,2-trifluoroethyl)carbamoyl)cyclopropyl)-2-(trifluoromethyl)benzamide] | 50 to 100% | 50 to 100% | A (80-100)
CN(CC(F)(F)F)C(=O)C1(NC(=O)c2ccc(/C(F)=C/C(c3cc(Cl)cc(Cl)c3)C(F)(F)F)cc2C(F)(F)F)CC1 (stereo not drawn) [F115, (Z)-4-(3-(3,5-Dichlorophenyl)-1,4,4,4-tetrafluorobut-1-en-1-yl)-N-(1-(methyl(2,2,2-trifluoroethyl)carbamoyl)cyclopropyl)-2-(trifluoromethyl)benzamide] | 50 to 100% | 50 to 100% | B (More than 0-Less than 80)

— patent US10251394B2, “Molecules having pesticidal utility, and intermediates, compositions, and processes, related thereto” (Dow AgroSciences LLC, priority 2016, dated 2019)
